Measurements taken from patent US9226882B2, “Eco-friendly non-aqueous antimicrobial composition comprising tropolone with 1,3-propanediol and/or sorbitan caprylate” (ISP INVESTMENTS INC., priority 2012, dated 2016).
≈ marks a conversion by molar mass, not a printed value.

How the values were obtained:
[1] = system: Candida albicans, (DSM 1386); assay: MIC study on agar, yeast strain; format: cell-based; details: DSM1386, Candida albican, Malt extract-Agar (3%) pH 5.6, 2 to 3 weeks at 20 to 25° C. in the dark
Description: (§1) Equal amounts of mixtures were poured into four Petri dishes. After cooling, the Petri dishes were inoculated with the respective standard strains. During the experiment, the Petri dishes were kept for 2 to 3 weeks at room temperature of about 20 to 25° C. in the dark. The following two different types of culture media were employed for the present studies: • i. […] The preferred bacterial strains for the present application are Pseudomonas aeruginosa (DSM 1128), Staphylococcus aureus (DSM 799), E. Coli (DSM 1576), Proteus mirabilis (DSM 788) and Burkholderia cepacia (DSM 7288), and the preferred fungal strains are Aspergillus brasiliensis (DSM 1988), Penicillium expansum (DSM 1282), Trichoderma viride (DSM 63064), and the yeast is Candida albicans, (DSM 1386). After 2nd and 3rd weeks macroscopic evaluations were performed, the ratings are as follows: The formulation under examination is considered to be efficient if the following conditions are duly fulfilled i.e. (i) after 2-3 weeks no growth of the tested culture is visible; (ii) with rising concentration of the tested formulation, the germ growth should macroscopically be reduced until it is not visible any more.

[2] = system: Burkholderia cepacia (DSM 7288); assay: MIC study on agar, bacterial strain; format: cell-based
Description: as §1

[3] = system: Pseudomonas aeruginosa (DSM 1128); assay: MIC study on agar, bacterial strain; format: cell-based; details: DSM1128, Caso-Agar pH 7.3, 2 to 3 weeks at 20 to 25° C. in the dark
Description: as §1

[4] = system: Staphylococcus aureus (DSM 799); assay: MIC study on agar, bacterial strain; format: cell-based; details: DSM799, Caso-Agar pH 7.3, 2 to 3 weeks at 20 to 25° C. in the dark
Description: as §1

[5] = system: Proteus mirabilis (DSM 788); assay: MIC study on agar, bacterial strain; format: cell-based; details: DSM788, Caso-Agar pH 7.3, 2 to 3 weeks at 20 to 25° C. in the dark
Description: as §1

E. Coli (DSM 1576) = assay: MIC study on agar, bacterial strain; format: cell-based, Escherichia coli
Description: as §1

[6] = system: Trichoderma viride (DSM 63064); assay: MIC study on agar, fungal strain; format: cell-based
Description: as §1

[7] = system: Aspergillus brasiliensis (DSM 1988); assay: MIC study on agar, fungal strain; format: cell-based
Description: as §1

[8] = system: Penicillium expansum (DSM 1282); assay: MIC study on agar, fungal strain; format: cell-based; details: DSM1282, Penicillim expansum, Malt extract-Agar (3%) pH 5.6, 2 to 3 weeks at 20 to 25° C. in the dark
Description: as §1

MIC [1]: 20 µg/mL (≈ 164 µM)
MIC ([2]; DSM7288, Burkholderia cepacia, Caso-Agar pH 7.3, 2 to 3 weeks at 20 to 25° C. in the dark): 250 µg/mL (≈ 2050 µM)
reduction of MIC level of tropolone ([2]; by sorbitan caprylate (Velsan SC), against Burkholderia cepacia): > 90%
MIC [3]: 500 µg/mL (≈ 4090 µM)
MIC [4]: 250 µg/mL (≈ 2050 µM)
MIC [5]: 250 µg/mL (≈ 2050 µM)
MIC (E. Coli (DSM 1576); DSM1576, Escherichia coli, Caso-Agar pH 7.3, 2 to 3 weeks at 20 to 25° C. in the dark): 250 µg/mL (≈ 2050 µM)
reduction of MIC level of tropolone (E. Coli (DSM 1576); in presence of 1,3-propanediol (Zemea), against Escherichia coli): > 50%
MIC ([6]; DSM63064, Trichoderma viride, Malt extract-Agar (3%) pH 5.6, 2 to 3 weeks at 20 to 25° C. in the dark): 250 µg/mL (≈ 2050 µM)
reduction of MIC level of tropolone ([6]; by sorbitan caprylate (Velsan SC), against Trichoderma viride): > 50%
MIC ([7]; DSM1988, Aspergillus brasiliensis, Malt extract-Agar (3%) pH 5.6, 2 to 3 weeks at 20 to 25° C. in the dark): 50 µg/mL (≈ 409 µM)
reduction of MIC level of tropolone ([7]; by sorbitan caprylate (Velsan SC), against Aspergillus brasiliensis): > 50%
MIC [8]: 100 µg/mL (≈ 819 µM)
Structure (SMILES): O=c1cccccc1O [Tropolone, 2-Hydroxy-2,4,6-cycloheptatrien-1-one]
